Paper PMC4657039 (Assay and Drug Development Technologies, 2014)

Assays:
human Cav2.1/β4/α2δ1 = human Cav2.1/β4/α2δ1 (Homo sapiens, UniProt O00555); assay type: cell-based
human Cav2.2/β3/α2δ1 [1] = molecular target: T1, human Cav2.2/β3/α2δ1 (Homo sapiens, UniProt Q00975); assay type: cell-based
human Cav3.2 = human Cav3.2 (Homo sapiens, UniProt O95180); assay type: cell-based
human Cav1.2/β2/α2δ1 = human Cav1.2/β2/α2δ1 (Homo sapiens, UniProt Q13936)
human Cav2.2/β3/α2δ1 [2] = molecular target: T1, human Cav2.2/β3/α2δ1; assay: IonWorks Barracuda repetitive test pulse train; assay type: cell-based; details: Cav2.2, 30 pulse train 0.1 Hz

T1 sequence (Q00975 whole entry): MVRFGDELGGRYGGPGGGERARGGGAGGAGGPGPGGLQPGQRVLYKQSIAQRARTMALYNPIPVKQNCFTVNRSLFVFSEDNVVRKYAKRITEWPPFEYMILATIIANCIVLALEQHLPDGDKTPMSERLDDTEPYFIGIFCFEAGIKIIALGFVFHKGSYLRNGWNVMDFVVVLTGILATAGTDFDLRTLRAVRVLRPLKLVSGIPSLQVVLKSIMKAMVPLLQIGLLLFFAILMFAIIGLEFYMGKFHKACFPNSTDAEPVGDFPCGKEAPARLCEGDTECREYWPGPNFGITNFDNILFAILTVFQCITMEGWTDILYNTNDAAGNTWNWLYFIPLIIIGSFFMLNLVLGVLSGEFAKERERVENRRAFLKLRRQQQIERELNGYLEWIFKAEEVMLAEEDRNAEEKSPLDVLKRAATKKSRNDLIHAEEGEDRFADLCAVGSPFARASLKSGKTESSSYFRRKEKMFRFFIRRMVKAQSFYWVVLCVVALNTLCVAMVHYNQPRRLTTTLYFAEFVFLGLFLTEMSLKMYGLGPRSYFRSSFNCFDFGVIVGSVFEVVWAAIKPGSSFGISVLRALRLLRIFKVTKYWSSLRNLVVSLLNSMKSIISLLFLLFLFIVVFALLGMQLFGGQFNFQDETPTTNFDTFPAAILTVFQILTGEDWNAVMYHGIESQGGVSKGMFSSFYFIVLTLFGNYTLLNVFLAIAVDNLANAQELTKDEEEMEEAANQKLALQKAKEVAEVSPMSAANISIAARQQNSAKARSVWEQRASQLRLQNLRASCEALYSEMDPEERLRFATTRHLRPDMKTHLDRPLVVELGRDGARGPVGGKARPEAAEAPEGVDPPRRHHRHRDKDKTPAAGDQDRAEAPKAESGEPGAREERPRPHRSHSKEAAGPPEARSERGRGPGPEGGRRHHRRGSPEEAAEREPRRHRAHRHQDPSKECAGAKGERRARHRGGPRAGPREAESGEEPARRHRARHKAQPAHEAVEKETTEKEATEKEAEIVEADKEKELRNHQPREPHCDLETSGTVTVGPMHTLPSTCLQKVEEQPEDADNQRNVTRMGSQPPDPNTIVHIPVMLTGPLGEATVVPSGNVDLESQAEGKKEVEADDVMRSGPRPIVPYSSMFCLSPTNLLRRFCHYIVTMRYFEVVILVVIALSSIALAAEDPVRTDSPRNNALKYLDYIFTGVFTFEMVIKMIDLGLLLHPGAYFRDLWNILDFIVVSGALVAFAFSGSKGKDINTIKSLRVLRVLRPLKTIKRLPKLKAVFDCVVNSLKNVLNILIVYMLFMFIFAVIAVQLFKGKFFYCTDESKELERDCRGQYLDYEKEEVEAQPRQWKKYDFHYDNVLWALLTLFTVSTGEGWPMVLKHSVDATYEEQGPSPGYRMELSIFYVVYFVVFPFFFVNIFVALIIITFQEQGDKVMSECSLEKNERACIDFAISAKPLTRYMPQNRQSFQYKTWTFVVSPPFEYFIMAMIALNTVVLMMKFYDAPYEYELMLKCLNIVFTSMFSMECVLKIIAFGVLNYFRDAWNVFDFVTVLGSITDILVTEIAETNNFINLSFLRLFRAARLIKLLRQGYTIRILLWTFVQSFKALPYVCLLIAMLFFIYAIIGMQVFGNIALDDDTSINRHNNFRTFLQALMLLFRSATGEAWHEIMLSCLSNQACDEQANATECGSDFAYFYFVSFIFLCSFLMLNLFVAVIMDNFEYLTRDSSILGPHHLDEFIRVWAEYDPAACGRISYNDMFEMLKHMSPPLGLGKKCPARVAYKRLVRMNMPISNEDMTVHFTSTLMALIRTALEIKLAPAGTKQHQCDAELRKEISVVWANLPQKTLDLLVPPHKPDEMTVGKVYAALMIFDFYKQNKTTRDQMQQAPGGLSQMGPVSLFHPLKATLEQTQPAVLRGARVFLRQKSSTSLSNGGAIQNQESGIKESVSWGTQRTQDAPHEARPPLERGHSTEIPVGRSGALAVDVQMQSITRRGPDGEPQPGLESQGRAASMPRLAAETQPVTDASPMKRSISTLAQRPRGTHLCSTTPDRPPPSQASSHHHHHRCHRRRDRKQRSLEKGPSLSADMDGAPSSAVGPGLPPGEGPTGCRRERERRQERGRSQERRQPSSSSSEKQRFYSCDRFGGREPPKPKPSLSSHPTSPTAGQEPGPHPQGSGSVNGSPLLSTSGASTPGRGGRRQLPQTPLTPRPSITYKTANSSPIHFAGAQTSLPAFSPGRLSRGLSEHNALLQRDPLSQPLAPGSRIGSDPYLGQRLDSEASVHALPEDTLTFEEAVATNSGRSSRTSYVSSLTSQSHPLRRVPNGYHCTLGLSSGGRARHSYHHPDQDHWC
T1 sequence (P54289 25-956, further chain): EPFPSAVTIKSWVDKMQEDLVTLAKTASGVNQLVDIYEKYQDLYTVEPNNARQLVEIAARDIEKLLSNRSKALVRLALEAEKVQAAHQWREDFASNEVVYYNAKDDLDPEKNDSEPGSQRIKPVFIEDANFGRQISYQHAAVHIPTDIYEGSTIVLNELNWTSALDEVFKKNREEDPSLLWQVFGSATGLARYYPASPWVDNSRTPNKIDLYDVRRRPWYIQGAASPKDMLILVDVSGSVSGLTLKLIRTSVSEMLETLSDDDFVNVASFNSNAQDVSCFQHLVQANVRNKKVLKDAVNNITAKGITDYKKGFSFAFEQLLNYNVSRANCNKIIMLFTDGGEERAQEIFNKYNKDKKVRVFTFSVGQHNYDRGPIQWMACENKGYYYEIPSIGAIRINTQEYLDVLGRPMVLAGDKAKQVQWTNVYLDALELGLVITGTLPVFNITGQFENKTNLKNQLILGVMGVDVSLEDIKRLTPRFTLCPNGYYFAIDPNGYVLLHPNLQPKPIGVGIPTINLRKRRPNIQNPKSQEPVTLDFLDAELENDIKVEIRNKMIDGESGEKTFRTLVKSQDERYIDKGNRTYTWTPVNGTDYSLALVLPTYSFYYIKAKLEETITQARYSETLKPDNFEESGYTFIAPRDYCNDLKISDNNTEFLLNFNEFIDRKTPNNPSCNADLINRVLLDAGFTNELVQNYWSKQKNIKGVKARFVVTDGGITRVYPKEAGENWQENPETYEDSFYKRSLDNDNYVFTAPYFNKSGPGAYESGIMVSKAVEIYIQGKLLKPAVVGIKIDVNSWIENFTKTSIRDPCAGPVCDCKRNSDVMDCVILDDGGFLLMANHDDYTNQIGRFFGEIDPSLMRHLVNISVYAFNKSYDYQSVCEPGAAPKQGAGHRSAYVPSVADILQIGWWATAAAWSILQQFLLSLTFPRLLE
T1 sequence (P54284 whole entry, further chain): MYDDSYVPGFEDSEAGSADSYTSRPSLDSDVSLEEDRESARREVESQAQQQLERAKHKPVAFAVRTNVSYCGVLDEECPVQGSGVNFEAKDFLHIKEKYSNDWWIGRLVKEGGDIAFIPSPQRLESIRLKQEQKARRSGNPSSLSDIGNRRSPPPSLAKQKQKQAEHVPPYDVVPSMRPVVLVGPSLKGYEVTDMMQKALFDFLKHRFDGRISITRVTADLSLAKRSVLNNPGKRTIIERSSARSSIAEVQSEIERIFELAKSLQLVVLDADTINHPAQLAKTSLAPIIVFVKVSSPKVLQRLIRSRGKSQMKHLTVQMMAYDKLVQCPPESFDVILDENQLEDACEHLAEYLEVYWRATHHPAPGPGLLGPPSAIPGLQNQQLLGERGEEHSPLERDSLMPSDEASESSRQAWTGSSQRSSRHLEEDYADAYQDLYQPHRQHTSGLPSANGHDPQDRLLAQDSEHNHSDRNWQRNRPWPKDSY
T1 sequence (P54289 957-1103, further chain): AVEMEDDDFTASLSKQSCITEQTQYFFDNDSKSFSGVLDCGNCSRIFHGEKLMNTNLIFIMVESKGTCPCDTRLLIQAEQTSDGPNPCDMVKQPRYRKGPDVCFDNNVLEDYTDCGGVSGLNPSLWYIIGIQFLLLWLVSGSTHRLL

## COC(=O)C1=C(C)NC(C)=C([N+](=O)[O-])[C@H]1c1ccccc1C(F)(F)F [BAY K8644, (S)-(−)-BAY K8644]
Human Cav2.1/β4/α2δ1; concentrations ≥10 μM
  effect on Cav2.1 at high concentration: nonspecific inhibition
Human Cav2.2/β3/α2δ1 [1]; concentrations ≥10 μM
  effect on Cav2.2 at high concentration: nonspecific inhibition
Human Cav3.2; concentrations ≥10 μM
  effect on Cav3.2 at high concentration: nonspecific inhibition
Human Cav1.2/β2/α2δ1; 0.3 μM, test pulse 10 mV, holding −90 mV, 60-s CP to −50 mV
  effect on Cav1.2 currents: potentiated
Human Cav1.2/β2/α2δ1; concentrations ≥10 μM
  effect on Cav1.2 at high concentration: nonspecific inhibition
Human Cav1.2/β2/α2δ1; dose–response, Fig. 2B
  extent of potentiation of Cav1.2 channels: twofold potentiation

## COC(=O)C1=C(C)NC(C)=C(C(=O)OC)C1c1ccccc1[N+](=O)[O-] [Nifedipine, nifedipine]
Human Cav3.2; concentrations up to 3 μM (not shown)
  sensitivity of Cav3.2 channels: insensitive

## O=c1[nH]c2ccccc2n1C1CCN(CCCC(c2ccc(F)cc2)c2ccc(F)cc2)CC1 [Pimozide, pimozide]
Human Cav2.1/β4/α2δ1
  IC50: > 30 µM
Human Cav2.2/β3/α2δ1 [1]
  IC50: > 30 µM

## COCC(=O)O[C@]1(CCN(C)CCCc2nc3ccccc3[nH]2)CCc2cc(F)ccc2[C@@H]1C(C)C [Mibefradil, mibefradil]
Human Cav2.2/β3/α2δ1 [1]; current traces Fig. 5B, 10 μM mibefradil, 30 μM verapamil
  Cav2.2 blocking characteristics in multiple mode assay: use-dependent, but not inactivation-dependent block augmentation
Human Cav3.2; use-dependent block, multiple mode assay
  potency of use-dependent block in Cav3.2 versus Cav1.2: fourfold more potent
Human Cav2.2/β3/α2δ1 [2]
  potency of inhibition at TP30 compared with TP1: about seven times more potent
